# Assay results reported in patent US20110144040A1, “Acteoside and acteoside-rich plant extracts for increasing athletic performance in humans” (MN Intellectual Property Corp, LLC, priority 2009, published 2011).
# Tests used:
# [1] = system: athletic performance in humans; assay: oral acteoside supplementation for athletic performance in exercising humans; assay type: in vivo, human; details: peroral, used according to recommended protocols
# Description: Athletic performance is defined as any sporting activity where muscle strength and/or endurance are integral to individual performance, and is inclusive of both aerobic and anaerobic metabolic conditions. This includes active athletic competition, such as baseball, football, running, or Track & Field. It also includes any exercise activity designed to improve physical performance, directly or indirectly, via an improvement in muscle protein content (size), strength, and/or endurance, such as resistance training (circuit equipment, weight training), aerobics, Pilates, and/or calisthenics. Any improvement in athletic performance must include objective increases in speed, strength, muscle size (protein content), and/or endurance. It may also involve improved recovery from fatigue following exercise or athletic competition.
# This includes an ability to increase muscle strength, muscle power, endurance, and muscle protein content (size), as well as to reduce fatigue and facilitate recovery following intense exercise or athletic competition. The benefits appear almost immediately in some cases, but are more likely to occur after several weeks of regular use of acteoside or extracts containing acteoside. […]
# During the course of developing this invention, an effective oral daily dosage of acteoside to improve athletic performance was determined to be between 25 mg to 2,500 mg. […]
# [2] = system: prostaglandin biosynthesis; details: Arch Pharm Res 2006 29(6), 508-13; cited from earlier work
# [3] = system: free-radical induced oxidative stress; details: J Pharm Pharmacol 2004 56(6) 743-8; cited from earlier work
smiles,measurement,setting,value
C[C@@H]1O[C@@H](O[C@@H]2[C@@H](O)[C@H](OCCc3ccc(O)c(O)c3)O[C@H](CO)[C@H]2OC(=O)/C=C/c2ccc(O)c(O)c2)[C@H](O)[C@H](O)[C@H]1O [acteoside],improving athletic performance,[1],effective in-vivo peroral agents for improving athletic performance
same,inhibition of prostaglandin biosynthesis,[2],strong inhibitor
same,inhibition of free-radical induced oxidative stress,[3],strong inhibitor
